Where two headings read alike, the source gives them in different places.
Assays:
[1] = biological target: wild-type Drosophila melanogaster EcR (DmEcR; GAL4-EcR DEF with VP16-RXR-USP chimera) (Drosophila melanogaster, UniProt P34021); assay: Two-hybrid gene switch assay, luciferase reporter, wild-type DmEcR, mouse NIH3T3 cells; assay type: cell-based; details: EC50, FIG. 14A/14B, GAL4-EcR(DEF) with VP16-RXR-USP chimera
[2] = biological target: T1, BaEcR (GAL4-EcR DEF with VP16-RXR-USP chimera) (Bemisia tabaci, UniProt A0A6M3RDR8); assay: Two-hybrid gene switch assay, luciferase reporter, BaEcR, mouse NIH3T3 cells; details: EC50, FIG. 14A/14B, GAL4-EcR(DEF) with VP16-RXR-USP chimera
T1 sequence (A0A6M3RDR8 115-530): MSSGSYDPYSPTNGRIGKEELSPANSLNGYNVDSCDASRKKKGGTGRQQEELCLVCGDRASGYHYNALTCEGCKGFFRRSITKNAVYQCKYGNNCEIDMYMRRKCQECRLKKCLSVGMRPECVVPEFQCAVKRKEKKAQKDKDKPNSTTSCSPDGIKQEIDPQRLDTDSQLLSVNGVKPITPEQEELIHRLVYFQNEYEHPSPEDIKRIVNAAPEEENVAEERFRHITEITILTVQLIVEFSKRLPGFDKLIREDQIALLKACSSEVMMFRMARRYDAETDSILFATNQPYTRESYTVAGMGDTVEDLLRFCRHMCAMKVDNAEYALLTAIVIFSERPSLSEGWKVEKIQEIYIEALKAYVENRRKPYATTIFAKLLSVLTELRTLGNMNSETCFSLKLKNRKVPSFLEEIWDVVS
T1 sequence (P28702 1-533 partner): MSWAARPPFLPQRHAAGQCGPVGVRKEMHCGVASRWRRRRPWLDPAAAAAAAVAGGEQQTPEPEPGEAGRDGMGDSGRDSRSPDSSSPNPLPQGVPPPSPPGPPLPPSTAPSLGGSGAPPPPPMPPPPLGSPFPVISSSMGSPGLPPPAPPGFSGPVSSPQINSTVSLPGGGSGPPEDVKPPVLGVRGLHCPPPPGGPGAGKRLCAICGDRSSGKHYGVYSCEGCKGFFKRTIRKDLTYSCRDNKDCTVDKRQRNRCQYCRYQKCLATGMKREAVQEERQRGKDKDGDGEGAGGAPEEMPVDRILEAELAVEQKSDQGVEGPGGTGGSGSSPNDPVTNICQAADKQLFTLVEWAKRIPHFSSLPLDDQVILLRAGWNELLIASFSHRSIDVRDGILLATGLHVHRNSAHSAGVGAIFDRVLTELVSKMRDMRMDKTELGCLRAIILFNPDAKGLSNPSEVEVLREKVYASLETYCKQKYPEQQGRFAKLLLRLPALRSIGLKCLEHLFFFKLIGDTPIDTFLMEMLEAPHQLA

[3] = biological target: wild-type Aedes aegypti EcR (AaEcR; GAL4-EcR DEF with VP16-RXR-USP chimera) (Aedes aegypti, UniProt P49880); assay: Two-hybrid gene switch assay, luciferase reporter, wild-type AaEcR, mouse NIH3T3 cells; assay type: cell-based; details: GAL4-EcR(DEF) with VP16-RXR-USP chimera
[4] = biological target: T2, MsEcR (GAL4-EcR DEF with VP16-RXR-USP chimera) (Manduca sexta, UniProt P49883); assay: Two-hybrid gene switch assay, luciferase reporter, MsEcR, mouse NIH3T3 cells; details: EC50, FIG. 13A/13B, GAL4-EcR(DEF) with VP16-RXR-USP chimera
T2 sequence (P49883 1-556): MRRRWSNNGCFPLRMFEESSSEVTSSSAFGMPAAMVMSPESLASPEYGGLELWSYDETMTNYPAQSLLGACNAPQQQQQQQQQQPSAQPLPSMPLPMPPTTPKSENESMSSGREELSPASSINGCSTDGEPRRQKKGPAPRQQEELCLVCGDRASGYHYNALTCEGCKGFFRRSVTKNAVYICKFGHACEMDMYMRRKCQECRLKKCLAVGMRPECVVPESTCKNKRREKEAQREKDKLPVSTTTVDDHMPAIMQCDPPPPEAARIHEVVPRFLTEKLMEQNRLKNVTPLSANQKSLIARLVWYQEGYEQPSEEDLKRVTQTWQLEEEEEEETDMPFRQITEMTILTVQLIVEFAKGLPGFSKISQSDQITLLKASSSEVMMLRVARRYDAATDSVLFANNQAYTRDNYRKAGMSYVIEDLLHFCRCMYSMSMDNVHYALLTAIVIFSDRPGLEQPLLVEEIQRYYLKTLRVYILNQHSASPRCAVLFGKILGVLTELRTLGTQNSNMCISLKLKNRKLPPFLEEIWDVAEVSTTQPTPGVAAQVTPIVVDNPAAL
T2 sequence (P28702 1-533 partner): T1 sequence (P28702 1-533 partner)

[5] = biological target: T3, AmaEcR (GAL4-EcR DEF with VP16-RXR-USP chimera) (Amblyomma americanum, UniProt O44338); assay: Two-hybrid gene switch assay, luciferase reporter, AmaEcR, mouse NIH3T3 cells; details: EC50, FIG. 14A/14B, GAL4-EcR(DEF) with VP16-RXR-USP chimera
T3 sequence (O44338 255-570): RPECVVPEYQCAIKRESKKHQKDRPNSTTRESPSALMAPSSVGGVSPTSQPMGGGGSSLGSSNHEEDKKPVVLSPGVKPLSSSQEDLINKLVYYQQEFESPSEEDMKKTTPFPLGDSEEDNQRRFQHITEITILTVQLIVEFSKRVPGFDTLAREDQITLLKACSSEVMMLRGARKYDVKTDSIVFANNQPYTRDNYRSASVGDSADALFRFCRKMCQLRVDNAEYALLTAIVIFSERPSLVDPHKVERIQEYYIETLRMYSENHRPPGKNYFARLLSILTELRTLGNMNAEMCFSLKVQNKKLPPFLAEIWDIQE
T3 sequence (P28702 1-533 partner): T1 sequence (P28702 1-533 partner)

[6] = tested on: NcEcR (GAL4-EcR DEF with VP16-RXR partner); assay: Two-hybrid gene switch assay, luciferase reporter, NcEcR, mouse NIH3T3 cells; details: FIG. 14A/14B, GAL4-EcR(DEF)
[7] = biological target: BmEcR (GAL4-EcR DEF with VP16-RXR-USP chimera) (Bombyx mori, UniProt P49881); assay: Two-hybrid gene switch assay, luciferase reporter, BmEcR, mouse NIH3T3 cells; assay type: cell-based
[8] = EC50, FIG. 13A/13B, BmEcR, GAL4-EcR(DEF) with VP16-RXR-USP chimera

Sequence of wild-type Drosophila melanogaster EcR (DmEcR; GAL4-EcR DEF with VP16-RXR-USP chimera) (P34021 with tags, fused parts or gaps limits assumed): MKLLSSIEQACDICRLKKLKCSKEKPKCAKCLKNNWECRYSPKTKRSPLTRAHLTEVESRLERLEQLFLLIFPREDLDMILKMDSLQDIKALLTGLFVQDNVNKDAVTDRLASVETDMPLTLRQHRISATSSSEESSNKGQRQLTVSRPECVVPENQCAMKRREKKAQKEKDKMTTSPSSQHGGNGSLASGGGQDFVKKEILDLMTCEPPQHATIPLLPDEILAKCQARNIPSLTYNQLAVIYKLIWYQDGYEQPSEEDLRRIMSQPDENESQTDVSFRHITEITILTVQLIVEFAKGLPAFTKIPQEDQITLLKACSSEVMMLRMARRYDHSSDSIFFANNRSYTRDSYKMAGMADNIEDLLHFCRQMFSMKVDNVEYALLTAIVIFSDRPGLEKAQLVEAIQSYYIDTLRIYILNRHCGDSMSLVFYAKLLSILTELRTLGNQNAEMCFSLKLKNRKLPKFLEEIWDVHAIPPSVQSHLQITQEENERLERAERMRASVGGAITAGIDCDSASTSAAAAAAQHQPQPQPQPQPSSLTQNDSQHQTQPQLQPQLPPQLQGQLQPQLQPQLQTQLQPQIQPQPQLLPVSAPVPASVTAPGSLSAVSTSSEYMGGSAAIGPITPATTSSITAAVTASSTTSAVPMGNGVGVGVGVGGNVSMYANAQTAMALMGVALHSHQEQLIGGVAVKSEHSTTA
Sequence of wild-type Aedes aegypti EcR (AaEcR; GAL4-EcR DEF with VP16-RXR-USP chimera) (P49880 with tags, fused parts or gaps limits assumed, change not shown): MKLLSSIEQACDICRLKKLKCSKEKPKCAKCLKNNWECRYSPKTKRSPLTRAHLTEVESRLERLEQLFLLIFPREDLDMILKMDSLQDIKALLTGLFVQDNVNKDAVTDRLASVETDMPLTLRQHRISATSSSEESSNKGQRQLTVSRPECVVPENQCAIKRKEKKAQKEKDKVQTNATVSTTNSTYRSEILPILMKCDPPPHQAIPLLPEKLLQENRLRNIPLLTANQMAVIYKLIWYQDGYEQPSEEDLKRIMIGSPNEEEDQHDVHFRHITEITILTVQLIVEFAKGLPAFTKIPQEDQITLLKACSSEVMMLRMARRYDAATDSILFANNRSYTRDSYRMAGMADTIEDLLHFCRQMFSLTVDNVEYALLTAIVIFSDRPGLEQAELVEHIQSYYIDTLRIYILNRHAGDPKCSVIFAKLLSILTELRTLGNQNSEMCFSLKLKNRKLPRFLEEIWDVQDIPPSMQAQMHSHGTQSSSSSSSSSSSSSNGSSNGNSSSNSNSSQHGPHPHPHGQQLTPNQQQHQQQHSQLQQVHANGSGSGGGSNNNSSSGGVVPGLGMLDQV
Sequence of BmEcR (GAL4-EcR DEF with VP16-RXR-USP chimera) (P49881 other isoform, or with tags, fused parts or gaps, change not shown): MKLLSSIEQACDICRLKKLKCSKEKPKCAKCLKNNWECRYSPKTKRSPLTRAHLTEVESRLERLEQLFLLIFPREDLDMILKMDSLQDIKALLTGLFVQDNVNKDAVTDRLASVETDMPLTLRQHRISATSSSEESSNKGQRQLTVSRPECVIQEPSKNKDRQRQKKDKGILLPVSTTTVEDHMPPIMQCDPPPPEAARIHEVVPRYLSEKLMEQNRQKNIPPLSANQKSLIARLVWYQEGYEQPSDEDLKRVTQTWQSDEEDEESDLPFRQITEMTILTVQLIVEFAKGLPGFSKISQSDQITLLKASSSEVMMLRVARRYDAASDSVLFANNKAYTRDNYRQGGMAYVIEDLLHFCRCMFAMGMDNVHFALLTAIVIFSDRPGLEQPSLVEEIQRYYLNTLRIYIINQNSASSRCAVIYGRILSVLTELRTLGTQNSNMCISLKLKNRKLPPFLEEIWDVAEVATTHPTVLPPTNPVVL

| SMILES | EC50 [1] [µM] | EC50 [2] [µM] | EC50 ([3]; FIG. 14A/14B, read-out: EC50) [µM] | EC50 [4] [µM] | EC50 [5] [µM] | EC50 [6] [nM] | EC50 [7] [µM] | EC50 ([7]; read-out: EC50) [µM] | EC50 ([3]; EC50, FIG. 14A/14B) [µM] | EC50 [7, 8] [µM] |
| --- | --- | --- | --- | --- | --- | --- | --- | --- | --- | --- |
| CC(C)(O)CC[C@@H](O)[C@](C)(O)[C@H]1CC[C@@]2(O)C3=CC(=O)[C@@H]4C[C@H]5OC(C)(C)O[C@H]5C[C@]4(C)[C@H]3CC[C@]12C [20-hydroxyecdysone-2,3-acetonide] | > 33 | ~15 | ~15 | ~10 | ~7 | 2900 | > 33 |  |  |  |
| CCC(CC(O)C(C)(O)C1CCC2(O)C3=CC(=O)C4CC(O)C(O)CC4(C)C3CCC12C)C(C)(C)O (stereo not shown) [makisterone C] | ~5 | ~3.3 | 1.02 | ~4 | ~2 | ~100 |  | > 33 |  |  |
| CC(C)(O)CC[C@@H](O)[C@](C)(O)[C@H]1CC[C@@]2(O)C3=CC(=O)[C@@H]4C[C@@H](O)[C@@H](O)[C@@H](O)[C@]4(C)[C@H]3CC[C@]12C [integristerone A] | > 33 | ~20 | ~10 | ~12 | ~10 | ~2000 |  | > 33 |  |  |
| CC(C)(O)CC[C@@H](O)[C@](C)(O)[C@H]1CC[C@@]2(O)C3=C[C@H](O)[C@@H]4C[C@@H](O)[C@@H](O)C[C@]4(C)[C@H]3CC[C@]12C [Compound 6a-hydroxy-20-hydroxyecdysone] | > 33 | > 33 | ~12 | > 33 | 10 | ~10000 | > 33 |  |  |  |
| CC(=O)O[C@H](CCC(C)(C)O)[C@](C)(O)[C@H]1CC[C@@]2(O)C3=CC(=O)[C@@H]4C[C@@H](O)[C@@H](O)C[C@]4(C)[C@H]3CC[C@]12C [Compound 20-hydroxyecdysone-22-acetate] | > 33 | ~2 | ~2 | ~2 | ~2 | 2440 |  | > 33 |  |  |
| CC(=O)OCC(=O)O[C@H](CCC(C)(C)O)[C@](C)(O)[C@H]1CC[C@@]2(O)C3=CC(=O)[C@@H]4C[C@@H](O)[C@@H](O)C[C@]4(C)[C@H]3CC[C@]12C [20-hydroxyecdysone 22-acetoxyacetate] | ~20 | ~12 | ~3.3 | ~10 | ~3.3 | 755 | > 33 |  |  |  |
| CC(C)=CC[C@@H](O)[C@](C)(O)[C@H]1CC[C@@]2(O)C3=CC(=O)[C@@H]4C[C@@H](O)[C@@H](O)C[C@]4(C)[C@H]3CC[C@]12C [stachysterone C] | 0.385 | 0.658 |  | 0.672 | ~0.1 | 13 |  |  | 0.044 | ~5 |
| CC(C)(O)CC[C@@H](O)[C@](C)(O)[C@H]1CC[C@@]2(O)C3=C[C@@H](O)[C@@H]4C[C@@H](O)[C@@H](O)C[C@]4(C)[C@H]3CC[C@]12C [Compound 6b-hydroxy-20-hydroxyecdysone] | ~20 | ~20 | ~6 | ~12 | ~3.3 | 1700 | > 33 |  |  |  |
| CCCCCC(=O)OC1CC2(C)C(C(C)(O)C(O)CCC(C)(C)O)CCC2(O)C2=CC(=O)C3CC(O)C(O)CC3(C)C21 (stereo not shown) [turkesterone-11 a -hexanoate] | > 33 | > 33 |  | > 33 | ~10 | ~7000 |  |  | ~12 | > 33 |
| CCC(=O)OC1CC2(C)C(C(C)(O)C(O)CCC(C)(C)O)CCC2(O)C2=CC(=O)C3CC(O)C(O)CC3(C)C21 (stereo not shown) [turkesterone-11 a -propionate] | > 33 | > 33 |  | > 33 | ~10 | ~10000 |  |  | ~15 | > 33 |
